Test results taken from ChEMBL document CHEMBL3853299 (Eur J Med Chem, 2016).

What was measured:
Prothrombin [1] = biological target: T1, Prothrombin (Homo sapiens, UniProt P00734); assay: Inhibition of human thrombin pre-incubated for 10 mins before Ac-FVR-AMC substrate addition and measured after 10 mins by fluorescence based assay
Prothrombin [2] = biological target: T1, Prothrombin; assay: Inhibition of human thrombin at 1 ug/ml pre-incubated for 10 mins before Ac-FVR-AMC substrate addition and measured after 10 mins by fluorescence based assay
Rattus norvegicus = species: Rattus norvegicus; assay: Anticoagulant activity in rat assessed as inhibition of arteriovenous thrombosis at 0.5 mg/ml after 15 mins relative to control; assay type: functional

Compound | IC50 (Prothrombin [1]) [nM] | inhibition (Prothrombin [2]) [%] | inhibition (INH) (Rattus norvegicus) [%]
CCn1c(CNc2ccc(C(=N)N)cc2)nc2cc(C(=O)N(CCC(=O)O)c3cc(C)ccn3)ccc21 | 1.62 | > 90 | 
CCn1c(CNc2ccc(C(=N)N)cc2)nc2cc(C(=O)N(CCC(=O)O)c3ccccc3)ccc21 | 4.69 | > 90 | 
CCn1c(CNc2ccc(C(=N)N)cc2)nc2cc(C(=O)N(CCC(=O)O)c3ccc(F)cc3F)ccc21 | 4.23 | > 90 | 
CCn1c(CNc2ccc(C(=N)N)cc2)nc2cc(C(=O)N(CCC(=O)O)c3cccc(C)n3)ccc21 | 0.96 | > 90 | 85.35
Cn1c(CNc2ccc(C(=N)N)cc2)nc2cc(C(=O)N(CCC(=O)O)c3ccccn3)ccc21 [DABIGATRAN] |  |  | 85.07
CCn1c(CNc2ccc(C(=N)N)cc2)nc2cc(C(=O)N(CCC(=O)O)c3ccc(F)c(C)c3)ccc21 | 6.27 | > 90 | 
CCn1c(CNc2ccc(C(=N)N)cc2)nc2cc(C(=O)N(CCC(=O)O)c3ccc(C)cc3)ccc21 | 4.98 | > 90 | 

More lines, main results first:

IC50 (Prothrombin [1]) [nM] | inhibition (Prothrombin [2]) [%] | Compound | inhibition (INH) (Rattus norvegicus) [%]
3.1 | > 90 | CCn1c(CNc2ccc(C(=N)N)cc2)nc2cc(C(=O)N(CCC(=O)O)c3c(C)cccc3C)ccc21 | 
2.13 | > 90 | CCn1c(CNc2ccc(C(=N)N)cc2)nc2cc(C(=O)N(CCC(=O)O)c3cccc(C)c3)ccc21 | 
6.59 | > 90 | CCn1c(CNc2ccc(C(=N)N)cc2)nc2cc(C(=O)N(CCC(=O)O)c3cccc(C)c3C)ccc21 | 
3.11 | > 90 | CCn1c(CNc2ccc(C(=N)N)cc2)nc2cc(C(=O)N(CCC(=O)O)c3ccccc3C)ccc21 | 77.93
16.4 | > 90 | CCn1c(CNc2ccc(C(=N)N)cc2)nc2cc(C(=O)N(CCC(=O)O)c3ccc(C)cc3C)ccc21 | 
